Experimental data: patent publication US4461761A, “Oligomers of compounds of the muramyl-peptide type and medicaments containing them” (priority 1978, dated 1984)

Legend:
[1] = system: bovine serum albumin (BSA); assay: Adjuvant character in the aqueous phase (anti-BSA antibody titer, passive hemagglutination); type: in vivo, Swiss mice; conditions: 100 μg adjuvant s.c. with 0.5 mg BSA in isotonic saline; booster day 30; six days after booster; maximum serum dilution agglutinating
Method: Groups of 8 Swiss mice aged two months received, by sub-cutaneous injection (SC), 0.5 mg of antigen constituted by bovine serum albumin (BSA) with 0.1 mg or without the tested substance in an isotonic saline solution. This high dose of antigen, because it is situated at the limit of the paralyzing dose with respect to the immunitary response, results, for this reason, in a weak or zero response to the antigen only in the controls: It constitutes therefore a severe criterion to establish the activity of an adjuvant substance. Thirty days later, the mice received, by the same administrative route, a booster containing 0.1 mg of the same antigen.
The antibody level was determined, six days after the booster, by passive hemagglutination using sheep's red blood corpuscles treated with formalin and covered with the antigen studied according to the method described by A. A. HIRATA and M. W. BRANDISS (J. Immunol., 100, 641-648, 1968).
The antibody titer, represented by the maximum serum dilution agglutinating a given amount of sheep corpuscles, reaches a maximum at the 36th day. The results obtained for various products according to the invention are shown in Table I. By way of comparison, the results obtained with MDP are indicated, on the one hand, and for PAP-MDP, on the other hand.

[2] = system: ovalbumin; assay: Adjuvant character in emulsion: serum antibodies specific for ovalbumin; type: in vivo, Hartley guinea pigs; conditions: emulsion with 1 mg ovalbumin, intradermal; product 50 μg in FIA; day 21; μg nitrogen precipitatable by antigen per ml serum
Method: (§1) The tests were carried out on batches of 6 male Hartley guinea pigs of 350 g. The administration was done by intradermal injection into the plantar pad of each of the rear paws. Ovalbumin (constituting the antigen) in the amount of 1 mg is prepared in 0.1 ml of an emulsion of saline isotonic solution, in an oily phase constituted either by the Freund incomplete adjuvant (FIA) or by the complete adjuvant (FCA) formed by the FIA to which is added 0.1 mg of whole Mycobacterium smegmatis cells. The compound according to the invention was administered in the amount of 0.05 mg added in the emulsion containing the FIA.
Twenty-one days after the injection, the animals were bled. On the collected serum, the content of specific antibodies of the ovalbumin was measured by precipitation of the antibody-antigen complex in the equivalence zone. The amount of protein nitrogen contained in the precipitate was estimated by the Folin method. These values express the amount, in micrograms, of nitrogen precipitatable by the antigen, per milliliter of the serum.

[3] = system: Klebsiella pneumoniae; assay: Anti-Klebsiella pneumoniae activity in the adult mouse; type: in vivo; conditions: adult mouse; infection i.m. 1.5 × 10^4; treatment -24 h, i.v., 100 μg
Method: An experimental procedure was studied by CHEDID L. et coll. in "Proc. Natl. Acad. Sci. USA," 1977, 74: 2089, which permits the stimulating effect or not to be observed of substances studied with regard to immune defenses according as they protect or not the mice to which they are injected, the mice being inoculated by a dose of Klebsiella pneumoniae which results in the death of almost all of the controls.
The testing procedure is described in the article CHEDID L. et coll., Proc. Natl. Acad. Sci. USA, 74:2089.
It was shown that a dose of about 10^4 Klebsiella pneumoniae, injected by the intramuscular route in mice, results in the gradual death of a considerable part, if not all, of the animals in the week following the inoculation. After 8 days, the survival of the animals was definitely achieved.
The survival of groups of inoculated mice under the above conditions and treated by means of the products according to the invention was followed.
For these tests, hybrid mice (C57B1/6×AKR) FI bred at the PASTEUR INSTITUTE, from strains derived from the CNRS breeding station at ORLEANS, were used.
The infection by Klebsiella pneumoniae, a strain of the capsular 2, biotype d type, was done from a culture of 16 hours in a medium for pneumococci (No. 53515, PASTEUR INSTITUTE).
Various treatment conditions and tests have been studied. Thus, the treatment was carried out either 24 hours before the test, or 1 hour after the latter. The influence of the infecting dose and the mode of administration has also been studied. In particular, the protective properties of the products have been determined in the case of an injection of Klebsiella pneumoniae by the intravenous route, which corresponds to a severe infection.
In the majority of cases, the tests have been carried out on mice aged from 5 to 6 weeks. In one part of the tests, on the other hand, mice 7 days old were used, since the immune responses, in very young subjects are substantially different, and, on the whole, much more difficult to stimulate than those that are observed in adult subjects.
The products are administered in apyrogenic physiological solution in the proportion of 0.2 ml for intravenous administration to adult mice and 0.05 ml for sub-cutaneous injection to mice 7 days old. The controls received the solution alone.
The percentage protection indicated corresponds to the difference in percentages of survivors of the treated group with respect to the control group.

[4] = system: ovalbumin; assay: Adjuvant character in emulsion: delayed hypersensitivity cutaneous test; type: in vivo, Hartley guinea pigs; conditions: emulsion with 1 mg ovalbumin, intradermal; product 50 μg in FIA; challenge day 18, read 48 hours later
Method: as §1
Eighteen days after this immunization, possible delayed hypersensitivity reactions to the antigen were sought by injecting by the intradermal route 0.01 mg of ovalbumin in the side of the animals, and 48 hours later, the reaction of the point of injection was observed. The diameter in millimeters of the reaction thus-caused was measured.

N^ε.N^ε' 'bis(N-acetyl-muramyl-L-alanyl-D-isoglutamine-L-lysine)-adipimidyl, dichlorohydrate [Adipimidyl-bis-MDP-Lys]
Antibody titer [1]: 200
Serum antibodies [2]: 6000 µg/mL
% Protection [3]: 44%
Number of mice D + 3 (survivors) [3]: 27
Number of mice D + 5 (survivors) [3]: 23
Number of mice D + 10 (survivors) [3]: 22
Cutaneous test diameter in mm [4]: 17 mm
